Measurements: patent publication US20260284211A1, “DISACCHARIDE LINKER, LINKER-PAYLOAD CONTAINING THE SAME AND GLYCAN CHAIN-REMODELED ANTIBODY-DRUG CONJUGATE, PREPARATION METHOD AND USES THEREOF” (GENEQUANTUM HEALTHCARE (SUZHOU) CO., LTD., priority 2023, published 2026)

Key:
Type in all cases: cell-based
NCI-N87 tumor cells = test: Inhibition of NCI-N87 tumor cell proliferation (CellTiter-Glo); conditions: Homo sapiens, HER2 high expression cells, 96 hours, cell viability, read-out: IC50, inhibitory effects on NCI-N87 tumor cells
Procedure: (§1) Tumor cells in the logarithmic phase of growth were collected, and 5000 cells per well were evenly inoculated in each hole of the 96-well plate. After the cell adhesion overnight, the cells were treated with different concentrations of drugs for 96 hours. Cell viability was measured by CellTiter-Glo® luminescence cell viability detection kit, and the percentage of cell viability was calculated.

SK-BR-3 tumor cells = test: Inhibition of SK-BR-3 tumor cell proliferation (CellTiter-Glo); conditions: Homo sapiens, HER2 high expression cells, 96 hours, cell viability, read-out: IC50, inhibitory effects on SK-BR-3 tumor cells
Procedure: as §1

MDA-MB-468 tumor cells = test: Inhibition of MDA-MB-468 tumor cell proliferation (CellTiter-Glo); conditions: Homo sapiens, HER2-negative cells, 96 hours, cell viability, read-out: IC50, inhibitory effects on MDA-MB-468 tumor cells
Procedure: as §1

IC50 (NCI-N87 tumor cells): 614 pM
IC50 (SK-BR-3 tumor cells): 305 pM
IC50 (MDA-MB-468 tumor cells): 93.3 pM
SMILES: C=C1C[C@@H]2CC[C@@]34C[C@H]5O[C@H]6[C@@H](O3)[C@H]3O[C@H](CC[C@@H]3O[C@H]6[C@H]5O4)CC(=O)C[C@@H]3[C@@H](OC)[C@@H](C[C@H](O)CN)O[C@H]3C[C@H]3O[C@@H](CC[C@@H]1O2)C[C@@H](C)C3=C [Eribulin]
